Here are results for two compounds from ChEMBL document CHEMBL1151767, “Lipidyl pseudopteranes A-F: isolation, biomimetic synthesis, and PTP1B inhibitory activity of a new class of pseudopteranoids from the Gorgonian Pseudopterogorgia acerosa” (J Nat Prod, 2008).

pIC50: −log10 of the molar value. Active and inactive are the calls of the source. No cut-off for these calls is given here.

Test [1] deals with T1, Tyrosine-protein phosphatase non-receptor type 1 (Homo sapiens) (UniProt P18031).
T1 sequence (whole entry): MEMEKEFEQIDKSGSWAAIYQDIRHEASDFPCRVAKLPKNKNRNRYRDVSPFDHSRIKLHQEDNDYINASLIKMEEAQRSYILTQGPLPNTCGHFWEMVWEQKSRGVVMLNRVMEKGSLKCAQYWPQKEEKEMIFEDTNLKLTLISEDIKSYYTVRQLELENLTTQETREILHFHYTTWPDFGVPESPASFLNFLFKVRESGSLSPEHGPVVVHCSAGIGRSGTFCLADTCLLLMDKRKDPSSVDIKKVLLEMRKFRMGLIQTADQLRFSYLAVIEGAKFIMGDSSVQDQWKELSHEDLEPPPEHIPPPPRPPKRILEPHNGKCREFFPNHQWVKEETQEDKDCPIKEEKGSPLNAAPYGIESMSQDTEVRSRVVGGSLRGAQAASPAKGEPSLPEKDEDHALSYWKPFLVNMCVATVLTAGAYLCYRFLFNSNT
Description: Inhibition of GST-tagged PTP1B at 100 ug/mL.

For test [2], the target named is Tyrosine-protein phosphatase non-receptor type 6 (Homo sapiens) (UniProt P29350). Description: Inhibition of GST-tagged PTP SHP1 at 100 ug/mL.
Test [3] deals with T2, Tyrosine-protein phosphatase non-receptor type 1 (Homo sapiens, UniProt P18031).
T2 sequence (P18031 whole entry): T1 sequence (whole entry)
Description: Inhibition of GST-tagged PTP1B.

Test [4] has as its target Receptor-type tyrosine-protein phosphatase F (Homo sapiens) (UniProt P10586). Description: Inhibition of GST-tagged PTP LAR at 100 ug/mL.
The target of test [5] is T3, Dual specificity protein phosphatase 22 (Homo sapiens) (UniProt Q9NRW4).
T3 sequence (whole entry): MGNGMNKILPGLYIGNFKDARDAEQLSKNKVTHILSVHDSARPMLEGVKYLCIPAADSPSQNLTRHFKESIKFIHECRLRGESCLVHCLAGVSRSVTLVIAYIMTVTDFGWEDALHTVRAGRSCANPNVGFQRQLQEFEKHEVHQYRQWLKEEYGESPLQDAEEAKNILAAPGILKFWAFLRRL
Description: Inhibition of GST-tagged PTP MKPX at 100 ug/mL.

Receptor-type tyrosine-protein phosphatase F (Homo sapiens), sequence (P10586 whole entry): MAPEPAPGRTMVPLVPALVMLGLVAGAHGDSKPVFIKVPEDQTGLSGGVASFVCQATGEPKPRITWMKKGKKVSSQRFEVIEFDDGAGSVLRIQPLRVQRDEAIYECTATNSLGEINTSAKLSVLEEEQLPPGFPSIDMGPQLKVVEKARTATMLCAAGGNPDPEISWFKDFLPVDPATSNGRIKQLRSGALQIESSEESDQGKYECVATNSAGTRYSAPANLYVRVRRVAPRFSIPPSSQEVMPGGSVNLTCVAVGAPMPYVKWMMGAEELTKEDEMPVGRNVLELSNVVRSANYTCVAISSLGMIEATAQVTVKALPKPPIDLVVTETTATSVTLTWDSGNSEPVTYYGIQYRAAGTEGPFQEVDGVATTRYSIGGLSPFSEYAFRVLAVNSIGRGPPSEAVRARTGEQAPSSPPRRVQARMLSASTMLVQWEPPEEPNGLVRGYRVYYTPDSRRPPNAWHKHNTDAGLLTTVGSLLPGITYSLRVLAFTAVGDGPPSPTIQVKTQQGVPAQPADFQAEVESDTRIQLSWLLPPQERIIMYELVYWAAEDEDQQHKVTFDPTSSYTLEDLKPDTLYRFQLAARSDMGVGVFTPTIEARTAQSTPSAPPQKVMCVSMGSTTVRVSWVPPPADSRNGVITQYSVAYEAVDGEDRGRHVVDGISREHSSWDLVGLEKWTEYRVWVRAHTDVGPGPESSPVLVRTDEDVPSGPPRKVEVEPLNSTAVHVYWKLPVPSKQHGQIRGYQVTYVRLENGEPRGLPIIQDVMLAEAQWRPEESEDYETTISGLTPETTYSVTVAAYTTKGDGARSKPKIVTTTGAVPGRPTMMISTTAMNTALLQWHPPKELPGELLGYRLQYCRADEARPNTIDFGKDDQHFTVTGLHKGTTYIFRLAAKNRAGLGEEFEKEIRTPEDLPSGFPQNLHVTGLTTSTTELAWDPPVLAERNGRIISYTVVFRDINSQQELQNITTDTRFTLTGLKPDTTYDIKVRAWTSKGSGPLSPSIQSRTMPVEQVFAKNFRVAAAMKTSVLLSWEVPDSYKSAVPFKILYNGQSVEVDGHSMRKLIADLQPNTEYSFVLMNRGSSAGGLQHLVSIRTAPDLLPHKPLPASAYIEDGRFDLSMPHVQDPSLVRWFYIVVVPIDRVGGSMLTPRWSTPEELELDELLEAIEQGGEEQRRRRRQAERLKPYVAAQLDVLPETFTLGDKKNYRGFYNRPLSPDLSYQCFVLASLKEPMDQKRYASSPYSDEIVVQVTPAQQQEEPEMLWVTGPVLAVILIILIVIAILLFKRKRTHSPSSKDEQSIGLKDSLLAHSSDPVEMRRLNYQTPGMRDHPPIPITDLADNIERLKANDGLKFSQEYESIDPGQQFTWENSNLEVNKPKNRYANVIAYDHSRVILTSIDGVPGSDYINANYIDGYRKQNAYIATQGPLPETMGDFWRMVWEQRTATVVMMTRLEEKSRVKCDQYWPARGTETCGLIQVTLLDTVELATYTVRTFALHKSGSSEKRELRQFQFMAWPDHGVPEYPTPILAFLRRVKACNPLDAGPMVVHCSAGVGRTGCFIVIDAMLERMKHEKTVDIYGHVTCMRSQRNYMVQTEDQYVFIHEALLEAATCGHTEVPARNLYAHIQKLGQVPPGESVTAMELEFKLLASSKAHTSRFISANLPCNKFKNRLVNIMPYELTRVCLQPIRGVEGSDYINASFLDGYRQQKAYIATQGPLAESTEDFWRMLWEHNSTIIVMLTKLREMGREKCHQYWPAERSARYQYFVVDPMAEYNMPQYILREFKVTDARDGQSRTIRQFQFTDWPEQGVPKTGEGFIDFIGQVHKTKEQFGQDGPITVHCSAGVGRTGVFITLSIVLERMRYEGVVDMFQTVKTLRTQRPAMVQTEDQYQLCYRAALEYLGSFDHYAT
Tyrosine-protein phosphatase non-receptor type 6 (Homo sapiens), sequence (P29350 whole entry): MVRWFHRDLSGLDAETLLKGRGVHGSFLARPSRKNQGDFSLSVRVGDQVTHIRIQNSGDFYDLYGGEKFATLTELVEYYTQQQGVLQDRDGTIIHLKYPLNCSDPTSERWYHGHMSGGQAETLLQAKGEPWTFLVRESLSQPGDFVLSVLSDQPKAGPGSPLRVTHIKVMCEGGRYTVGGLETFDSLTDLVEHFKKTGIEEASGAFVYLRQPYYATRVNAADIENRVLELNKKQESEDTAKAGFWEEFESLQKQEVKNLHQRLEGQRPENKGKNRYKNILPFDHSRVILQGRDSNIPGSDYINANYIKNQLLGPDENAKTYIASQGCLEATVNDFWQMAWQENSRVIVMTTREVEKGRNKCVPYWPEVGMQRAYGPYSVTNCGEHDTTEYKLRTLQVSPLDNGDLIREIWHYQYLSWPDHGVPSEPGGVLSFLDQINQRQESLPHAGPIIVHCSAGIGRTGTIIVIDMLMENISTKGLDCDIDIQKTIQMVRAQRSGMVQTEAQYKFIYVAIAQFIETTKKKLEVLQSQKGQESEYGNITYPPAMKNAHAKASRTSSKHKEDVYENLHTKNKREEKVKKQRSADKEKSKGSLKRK

The term pIC50 denotes the IC50 on a negative log10 scale, so that one unit is a factor of ten. High values mean a small IC50, low ones a large IC50. As to `C=C(C)[C@H]1C2=CC(C(=O)OC)=C(C[C@H](C(=C)C)[C@@H](O)C(OC(=O)CCCCCCCCCCCCCCC)C3=C[C@H]1OC3=O)O2` (single isomer, unassigned) [LIPIDYL PSEUDOPTERANE A], in test [1], the result was Active. The result in test [2], in test [4] and in test [5] was inactive. In test [3], this compound had a negative logarithm of the IC50 (pIC50) of 3.95.
Regarding `C=C(C)[C@H]1CC2=C(C(=O)OC)C=C(O2)[C@H](C(=C)C)[C@H]2C=C(C(=O)O2)C(OC(=O)CCCCCCCCCCCCCCC)C1` (some centres undefined), the outcome in test [1] was Active. The outcome in test [2], in test [4] and in test [5] was inactive.
